# Values of other authors in article PMC10080691, “Enzyme-Responsive Double-Locked Photodynamic Molecular Beacon for Targeted Photodynamic Anticancer Therapy” (Journal of the American Chemical Society, 2023).
# Tests used:
# [1] = in DMF; reference standard value; cited from earlier work
# Description: The singlet oxygen generation efficiency of 1 was then studied and compared with that of 8, 14, and ZnPc in all these media using 1,3-diphenylisobenzofuran (DPBF) as the singlet oxygen probe.[67] The absorbance of DPBF’s absorption at 415 nm (in DMF) or 417 nm (in PBS and the buffer) was monitored during light irradiation (λ > 610 nm). Figures S4–S6 show the changes in the absorption spectra of the mixtures in DMF, PBS, and the buffer, respectively, upon irradiation. It can be seen that in all these media while 8 and ZnPc could effectively sensitize the formation of singlet oxygen to induce su ...
# [2] = in DMF; reference standard value; cited from earlier work; remark: listed apart in the source
# Description: The electronic absorption and fluorescence spectra of PMB 1 were first recorded in DMF and compared with those of the components 8 and 11, as well as the non-cleavable analogue 14 (Figure S2 and Table 1). […] In ...
smiles,measurement,setting,value
"[Zn+2].c1ccc2c(c1)-c1nc-2nc2[n-]c(nc3nc([n-]c4nc(n1)-c1ccccc1-4)-c1ccccc1-3)c1ccccc21 [ZnPc, zinc(II) phthalocyanine]",ΦΔ (singlet oxygen quantum yield) of reference,[1],0.56
same,ΦF (fluorescence quantum yield) of reference,[2],0.28
